{
  "source": "patent US20250152494A1",
  "about": "“COSMETIC COMPOSITION CONTAINING RETINOID, EXTRACT OF CENTELLA ASIATICA AND A DIPEPTIDE” (THE BOOTS COMPANY PLC, priority 2022, published 2025)",
  "system": "IL-6",
  "assay": "Retinol (Inumax)-induced IL-6 production in primary adult human dermal fibroblast cells",
  "format": "cell-based",
  "conditions": "lower effective retinoid concentrations (lower than 0.5% by weight of the composition)",
  "procedure": "Primary adult human dermal fibroblast cells were incubated with 0.1% microencapsulated retinol commercially available and sold y Evonik under the trade name Inumax. Inumax was diluted in cell culture media to a final concentration of 0.1% and the dilution was used as an inflammatory reaction control. The anti-inflammatory activity of Bisabolol and Centella asiatica was compared in comparison to the control by incubating adult human dermal fibroblast cells with 0.1% inumax in supernatant in the presence of Bisabolol and Centella asiatica, both in combination with dipeptide, at a range of concentrations. Cells were incubated fro 24 hours at 37 C and 5% CO2, in the presence of the actives. At the end of incubation time the supernatant was removed for IL-6 testing. An MTT (3-(4,5-dimethylthiazol-2-yl)-2,5-diphenyltetrazolium bromide) assay was performed on the treated cells to confirm cell metabolic activity following treatment. The levels of IL-6 in supernatant were determined using the Invitrogen IL-6 assay.",
  "data": [
    {"substance": "α-bisabolol", "values": [
      {"measurement": "reducing the retinol induced IL-6 production and consequential skin sensitivity", "value": "beneficial in reducing the retinol induced IL-6 production"}
    ]}
  ]
}
